In ChEMBL document CHEMBL5291721, “A preclinical secondary pharmacology resource illuminates target-adverse drug reaction associations of marketed drugs” (Nat Commun, 2023):

Legend:
Thromboxane A2 receptor = molecular target: T1, Thromboxane A2 receptor (Homo sapiens, UniProt P21731); type: functional, cell-based
T1 sequence (P21731 whole entry): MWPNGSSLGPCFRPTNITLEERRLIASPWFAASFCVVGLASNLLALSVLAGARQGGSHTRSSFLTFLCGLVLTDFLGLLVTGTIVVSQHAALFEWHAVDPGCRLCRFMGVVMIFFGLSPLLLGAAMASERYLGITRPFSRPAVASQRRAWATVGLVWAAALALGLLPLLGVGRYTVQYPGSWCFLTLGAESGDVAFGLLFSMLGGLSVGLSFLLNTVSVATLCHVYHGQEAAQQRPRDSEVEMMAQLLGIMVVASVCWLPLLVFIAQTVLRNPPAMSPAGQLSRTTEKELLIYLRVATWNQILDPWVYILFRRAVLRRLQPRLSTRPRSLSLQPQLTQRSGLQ

Progesterone receptor = molecular target: T2, Progesterone receptor (Homo sapiens, UniProt P06401)
T2 sequence (P06401 whole entry): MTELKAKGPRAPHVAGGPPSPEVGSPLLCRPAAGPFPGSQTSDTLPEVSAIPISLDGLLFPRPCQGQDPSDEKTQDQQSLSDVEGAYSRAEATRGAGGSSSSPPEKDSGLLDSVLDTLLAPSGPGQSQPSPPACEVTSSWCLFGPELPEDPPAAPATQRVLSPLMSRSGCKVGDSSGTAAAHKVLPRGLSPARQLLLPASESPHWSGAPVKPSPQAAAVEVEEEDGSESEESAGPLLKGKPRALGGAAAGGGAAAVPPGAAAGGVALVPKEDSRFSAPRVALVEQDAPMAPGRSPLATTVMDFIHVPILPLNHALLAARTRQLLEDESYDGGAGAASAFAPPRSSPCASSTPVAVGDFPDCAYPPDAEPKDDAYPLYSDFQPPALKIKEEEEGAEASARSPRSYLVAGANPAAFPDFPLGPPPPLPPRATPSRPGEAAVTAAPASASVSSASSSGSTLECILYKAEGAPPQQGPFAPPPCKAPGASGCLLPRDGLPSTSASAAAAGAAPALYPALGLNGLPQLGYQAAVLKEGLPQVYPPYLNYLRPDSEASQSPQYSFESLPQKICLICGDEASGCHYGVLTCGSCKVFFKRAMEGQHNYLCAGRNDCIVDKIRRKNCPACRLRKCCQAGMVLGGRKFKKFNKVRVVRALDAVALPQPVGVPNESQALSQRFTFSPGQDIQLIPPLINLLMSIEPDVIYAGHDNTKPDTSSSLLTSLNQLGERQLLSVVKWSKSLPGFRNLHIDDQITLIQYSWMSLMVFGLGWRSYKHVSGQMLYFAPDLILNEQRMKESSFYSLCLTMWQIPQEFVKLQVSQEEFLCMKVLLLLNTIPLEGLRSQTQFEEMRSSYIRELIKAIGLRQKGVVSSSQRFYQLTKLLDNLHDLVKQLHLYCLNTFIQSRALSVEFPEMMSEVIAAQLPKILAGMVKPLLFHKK

Acetylcholinesterase = Acetylcholinesterase (Homo sapiens, UniProt P22303); type: functional
Sequence of Acetylcholinesterase (P22303 whole entry): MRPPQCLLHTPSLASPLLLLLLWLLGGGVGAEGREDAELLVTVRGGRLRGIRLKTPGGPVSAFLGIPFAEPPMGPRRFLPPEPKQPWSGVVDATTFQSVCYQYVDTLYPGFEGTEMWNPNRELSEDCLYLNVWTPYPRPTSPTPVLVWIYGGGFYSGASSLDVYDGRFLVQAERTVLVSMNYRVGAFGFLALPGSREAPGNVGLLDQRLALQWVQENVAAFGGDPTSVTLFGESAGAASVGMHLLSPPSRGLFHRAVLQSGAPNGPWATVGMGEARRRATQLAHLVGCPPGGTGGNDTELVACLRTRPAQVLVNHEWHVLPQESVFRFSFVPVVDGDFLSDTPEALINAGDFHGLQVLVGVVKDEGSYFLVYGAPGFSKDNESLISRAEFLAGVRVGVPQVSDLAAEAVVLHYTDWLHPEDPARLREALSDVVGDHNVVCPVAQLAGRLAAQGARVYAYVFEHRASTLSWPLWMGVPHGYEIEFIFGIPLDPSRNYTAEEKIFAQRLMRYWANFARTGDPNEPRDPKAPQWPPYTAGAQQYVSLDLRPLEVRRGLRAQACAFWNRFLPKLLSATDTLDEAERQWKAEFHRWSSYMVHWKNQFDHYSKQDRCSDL

[1] = molecular target: 5-hydroxytryptamine receptor 2B (Homo sapiens, UniProt P41595); type: functional, cell-based
Sequence of 5-hydroxytryptamine receptor 2B (P41595 whole entry): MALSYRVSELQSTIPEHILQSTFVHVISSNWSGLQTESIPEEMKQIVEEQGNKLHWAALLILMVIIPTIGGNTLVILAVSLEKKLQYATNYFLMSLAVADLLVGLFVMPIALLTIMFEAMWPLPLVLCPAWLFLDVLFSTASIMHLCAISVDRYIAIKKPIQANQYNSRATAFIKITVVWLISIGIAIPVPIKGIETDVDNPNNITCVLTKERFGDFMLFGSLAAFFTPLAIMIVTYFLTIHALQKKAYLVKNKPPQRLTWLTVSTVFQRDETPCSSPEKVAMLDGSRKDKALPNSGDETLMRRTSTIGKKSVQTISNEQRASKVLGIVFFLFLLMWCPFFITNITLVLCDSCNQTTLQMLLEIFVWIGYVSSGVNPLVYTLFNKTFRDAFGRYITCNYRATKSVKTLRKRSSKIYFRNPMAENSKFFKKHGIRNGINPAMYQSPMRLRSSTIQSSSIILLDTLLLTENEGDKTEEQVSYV

[2] = molecular target: T3, Alpha-1A adrenergic receptor (Homo sapiens, UniProt P35348); type: functional, cell-based
T3 sequence (P35348 whole entry): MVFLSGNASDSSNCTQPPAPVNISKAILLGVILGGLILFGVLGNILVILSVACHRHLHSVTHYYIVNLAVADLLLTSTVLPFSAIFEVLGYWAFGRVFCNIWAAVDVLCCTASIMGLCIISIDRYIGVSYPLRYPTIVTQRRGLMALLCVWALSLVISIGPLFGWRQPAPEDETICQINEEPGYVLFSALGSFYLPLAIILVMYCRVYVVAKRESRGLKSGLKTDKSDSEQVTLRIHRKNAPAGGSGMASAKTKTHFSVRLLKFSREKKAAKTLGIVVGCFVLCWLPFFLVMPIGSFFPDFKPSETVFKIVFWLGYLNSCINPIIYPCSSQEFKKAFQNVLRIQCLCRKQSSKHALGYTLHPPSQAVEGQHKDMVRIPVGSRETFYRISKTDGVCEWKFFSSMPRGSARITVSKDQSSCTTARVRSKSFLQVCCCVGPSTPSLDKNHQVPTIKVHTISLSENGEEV

Prothrombin = Prothrombin (Homo sapiens, UniProt P00734); type: functional
Histamine H3 receptor = Histamine H3 receptor (Homo sapiens, UniProt Q9Y5N1)
Sequence of Histamine H3 receptor (Q9Y5N1 whole entry): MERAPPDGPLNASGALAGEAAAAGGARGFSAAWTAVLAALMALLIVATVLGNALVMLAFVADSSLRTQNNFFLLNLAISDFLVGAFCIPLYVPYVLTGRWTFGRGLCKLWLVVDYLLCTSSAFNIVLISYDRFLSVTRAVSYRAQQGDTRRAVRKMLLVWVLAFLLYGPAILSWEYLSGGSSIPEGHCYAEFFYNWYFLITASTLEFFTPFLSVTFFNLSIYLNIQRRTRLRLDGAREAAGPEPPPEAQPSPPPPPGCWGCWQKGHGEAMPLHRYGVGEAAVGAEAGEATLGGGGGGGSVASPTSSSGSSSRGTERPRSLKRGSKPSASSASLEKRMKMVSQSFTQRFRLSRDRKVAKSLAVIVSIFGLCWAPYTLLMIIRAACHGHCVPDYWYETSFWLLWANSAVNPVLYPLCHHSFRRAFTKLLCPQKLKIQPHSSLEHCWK
Note: assay procedure not described here.

Compound | AC50 (Thromboxane A2 receptor) | AC50 (Progesterone receptor) | AC50 (Acetylcholinesterase) | AC50 [1] | AC50 [2] | AC50 (Prothrombin) | AC50 (Histamine H3 receptor)
C#C[C@]1(OC(C)=O)CC[C@H]2[C@@H]3CCC4=CC(=O)CC[C@@H]4[C@H]3CC[C@@]21C [NORETHINDRONE ACETATE] | > 30 µM | 0.033 µM | > 30 µM | > 30 µM | 5.91 µM | > 30 µM | > 30 µM
CC1(C)C[C@@H]1C(=O)N/C(=C\CCCCSC[C@H](N)C(=O)O)C(=O)O [CILASTATIN] | > 30 µM | > 30 µM | > 30 µM | > 30 µM | > 30 µM | > 30 µM | > 30 µM
CC1=C(/C=C/C(C)=C\C=C\C(C)=C\C(=O)O)C(C)(C)CCC1 [ALITRETINOIN] | > 30 µM | > 30 µM | > 30 µM | > 30 µM | > 30 µM | > 30 µM | > 30 µM
CC(C)NC[C@H](O)COc1ccc(CCOCC2CC2)cc1 [LEVOBETAXOLOL] | > 30 µM | > 30 µM | > 30 µM | > 30 µM | > 30 µM | > 30 µM | > 30 µM
O=c1[nH]c(=O)n([C@H]2C[C@H](O)[C@@H](CO)O2)cc1/C=C/Br [BRIVUDINE] | > 30 µM | > 30 µM | > 30 µM | > 30 µM | > 30 µM | > 30 µM | > 30 µM
CC1(C)CCC(C)(C)c2cc(NC(=O)c3ccc(C(=O)O)cc3)ccc21 [TAMIBAROTENE] | 28.7 µM | 29.2 µM | > 30 µM | > 30 µM | > 10 µM | > 30 µM | > 30 µM
N[C@@H](Cc1ccc(O)cc1)C(=O)O [TYROSINE] | > 30 µM | > 30 µM | > 30 µM | > 30 µM | > 30 µM | > 30 µM | > 30 µM
CC(=O)OCC(=O)[C@@]1(OC(C)=O)[C@@H](C)C[C@H]2[C@@H]3C[C@H](F)C4=CC(=O)C=C[C@]4(C)[C@@]3(F)[C@@H](O)C[C@@]21C [DIFLORASONE DIACETATE] | > 30 µM | 0.0193 µM | > 30 µM | > 30 µM | > 30 µM | > 30 µM | > 30 µM
Cc1ncc(CO)c(CO)c1O [PYRIDOXINE] | > 30 µM | > 30 µM | > 30 µM | > 30 µM | > 30 µM | > 30 µM | > 30 µM
CC1=C(/C=C/C(C)=C/C=C/C(C)=C\C(=O)O)C(C)(C)CCC1 [ISOTRETINOIN] | > 30 µM | > 30 µM | > 30 µM | > 30 µM | > 30 µM | > 30 µM | > 30 µM
Cc1ccc(O)c([C@H](CCN(C(C)C)C(C)C)c2ccccc2)c1 [TOLTERODINE] |  |  | > 30 µM | > 30 µM | 24.7 µM |  | > 30 µM
CC(=O)Nc1ccc(/C=N/NC(N)=S)cc1 [AMITHIOZONE] | > 30 µM | > 30 µM | > 30 µM | > 30 µM |  | > 30 µM | > 30 µM
N[C@@H](Cc1ccc(N(CCCl)CCCl)cc1)C(=O)O | > 30 µM | > 30 µM | 20 µM | > 30 µM | > 30 µM | > 30 µM | > 30 µM
Cc1cccc(C)c1NC(=O)CN(CC(=O)O)CC(=O)O [LIDOFENIN] | > 30 µM | > 30 µM | > 30 µM | > 30 µM | > 30 µM | > 30 µM | > 30 µM
O=NN(CCCl)C(=O)NCCCl [CARMUSTINE] |  |  | > 30 µM | > 30 µM | > 30 µM |  | > 30 µM
CCn1c(=O)c2c(nc(/C=C/c3ccc(OC)c(OC)c3)n2C)n(CC)c1=O [ISTRADEFYLLINE] | > 30 µM | > 30 µM | > 30 µM | > 30 µM | > 30 µM |  | > 30 µM
